The nature of data set [1]: Selectivity ratio of IC50 for HEK293 cells to IC50 for Trypanosoma brucei brucei. Particulars: human, read-out: Ratio IC50. In kind it is toxicity.
Data set [2] relates to Trypanosoma brucei brucei. Kind of data set: Anti-trypanosomal activity against Trypanosoma brucei brucei. The data set is classed as functional, organism-based.
Data set [3] in a line: Cytotoxicity against HEK293 cells. In kind it is toxicity, cell-based. Particulars: human.
Data set [4] is described as follows: Cytotoxicity against HEK293 cells assessed as inhibition of cell viability at 83 uM relative to control. In kind it is toxicity, cell-based. Particulars: human, read-out: INH.
Data set [5] concerns Trypanosoma brucei brucei. Kind of data set: Disruption of nucleotide metabolism in bloodstream Trypanosoma brucei brucei 427 assessed as depletion of ATP at 1 uM incubated for 5 hrs. The data set is classed as functional, organism-based.
Data set [6] concerns Trypanosoma brucei brucei. Kind of data set: Disruption of nucleotide metabolism in bloodstream Trypanosoma brucei brucei 427 assessed as depletion of GTP at 1 uM incubated for 5 hrs. The data set is classed as functional, organism-based.
For data set [7], the system named is Trypanosoma brucei brucei. Kind of data set: Disruption of nucleotide metabolism in bloodstream Trypanosoma brucei brucei 427 assessed as depletion of UTP at 1 uM incubated for 5 hrs. The data set is classed as functional, organism-based.
For data set [8], the system named is Trypanosoma brucei brucei. Kind of data set: Disruption of nucleotide metabolism in bloodstream Trypanosoma brucei brucei 427 assessed as depletion of CTP at 1 uM incubated for 5 hrs. The data set is classed as functional, organism-based.
Data set [9] concerns Trypanosoma brucei brucei. The data set is described as follows: Disruption of nucleotide metabolism in bloodstream Trypanosoma brucei brucei 427 assessed as depletion of deoxy-ATP at 1 uM incubated for 5 hrs. In kind it is functional, organism-based.
In data set [10] the test system is Trypanosoma brucei brucei. The data set is described as follows: Disruption of nucleotide metabolism in bloodstream Trypanosoma brucei brucei 427 assessed as depletion of deoxy-GTP at 1 uM incubated for 5 hrs. The data set is classed as functional, organism-based.
The test system of data set [11] is Trypanosoma brucei brucei. Kind of data set: Disruption of nucleotide metabolism in bloodstream Trypanosoma brucei brucei 427 assessed as depletion of deoxy-UTP at 1 uM incubated for 5 hrs. The data set is classed as functional, organism-based.
Data set [12] has as its system Trypanosoma brucei brucei. The data set is described as follows: Disruption of nucleotide metabolism in bloodstream Trypanosoma brucei brucei 427 assessed as depletion of deoxy-CTP at 1 uM incubated for 5 hrs. The data set is classed as functional, organism-based.
For data set [13], the system named is Trypanosoma brucei brucei. The data set is described as follows: Induction of glycolysis in bloodstream Trypanosoma brucei brucei 427 assessed as increase in pyruvate level at 1 uM incubated for 5 hrs. In kind it is functional.
Data set [14] concerns Trypanosoma brucei brucei. The data set is described as follows: Induction of glycolysis in bloodstream Trypanosoma brucei brucei 427 assessed as increase in glycerol level at 1 uM incubated for 5 hrs. The data set is classed as functional.
Data set [15] relates to Trypanosoma brucei brucei. The data set is described as follows: Induction of glycolysis in bloodstream Trypanosoma brucei brucei 427 assessed as increase in succinate level at 1 uM incubated for 5 hrs. The data set is classed as functional.
Data set [16] concerns Trypanosoma brucei brucei. The data set is described as follows: Downregulation of 6-phosphogluconate level in bloodstream Trypanosoma brucei brucei 427 assessed as increase in pyruvate level at 1 uM incubated for 5 hrs. In kind it is functional.
For data set [17], the system named is Trypanosoma brucei brucei. Kind of data set: Downregulation of NADPH level in bloodstream Trypanosoma brucei brucei 427 assessed as increase in pyruvate level at 1 uM incubated for 5 hrs. In kind it is functional.
Data set [18] deals with Trypanosoma brucei brucei. The data set is described as follows: Upregulation of carnitine to acetyl-carnitine ratio in bloodstream Trypanosoma brucei brucei 427 assessed as increase in pyruvate level at 1 uM incubated for 5 hrs. In kind it is functional.
Data set [19] has as its system Trypanosoma brucei brucei. The data set is described as follows: Upregulation of glycolytic flux in bloodstream Trypanosoma brucei brucei 427 assessed as increase in pyruvate level at 1 uM incubated for 5 hrs. In kind it is functional.
For data set [20], the system named is Trypanosoma brucei brucei. The data set is described as follows: Effect on free CoA level in bloodstream Trypanosoma brucei brucei 427 assessed as increase in pyruvate level at 1 uM incubated for 5 hrs. The data set is classed as functional.
The test system of data set [21] is Trypanosoma brucei brucei. Kind of data set: Effect on free carnitine level in bloodstream Trypanosoma brucei brucei 427 assessed as increase in pyruvate level at 1 uM incubated for 5 hrs. The data set is classed as functional.
Data set [22] concerns Trypanosoma brucei brucei. Kind of data set: Effect on acetyl-CoA level in bloodstream Trypanosoma brucei brucei 427 assessed as increase in pyruvate level at 1 uM incubated for 5 hrs. In kind it is functional.
Data set [23] concerns Trypanosoma brucei brucei. The data set is described as follows: Effect on palmitoyl-CoA level in bloodstream Trypanosoma brucei brucei 427 assessed as increase in pyruvate level at 1 uM incubated for 5 hrs. The data set is classed as functional.
Data set [24] has as its system Trypanosoma brucei brucei. Kind of data set: Effect on stearoyl-CoA level in bloodstream Trypanosoma brucei brucei 427 assessed as increase in pyruvate level at 1 uM incubated for 5 hrs. The data set is classed as functional.
Data set [25] deals with Trypanosoma brucei brucei. Kind of data set: Effect on acetyl-carnitine level in bloodstream Trypanosoma brucei brucei 427 assessed as increase in pyruvate level at 1 uM incubated for 5 hrs. The data set is classed as functional.
Data set [26] relates to Trypanosoma brucei brucei. Kind of data set: Anti-trypanosomal activity against Trypanosoma brucei brucei at 10 uM relative to control. In kind it is functional.
The test system of data set [27] is Trypanosoma brucei brucei. The data set is described as follows: Disruption of nucleotide metabolism in bloodstream Trypanosoma brucei brucei 427 assessed as accumulation of NDP at 1 uM incubated for 5 hrs. In kind it is functional, organism-based.
Data set [28] concerns Trypanosoma brucei brucei. The data set is described as follows: Disruption of nucleotide metabolism in bloodstream Trypanosoma brucei brucei 427 assessed as accumulation of NMP at 1 uM incubated for 5 hrs. In kind it is functional, organism-based.
Data set [29] has as its system Trypanosoma brucei brucei. Kind of data set: Disruption of nucleotide metabolism in bloodstream Trypanosoma brucei brucei 427 assessed as accumulation of nucleosides at 1 uM incubated for 5 hrs. In kind it is functional, organism-based.
The test system of data set [30] is Trypanosoma brucei brucei. Kind of data set: Disruption of nucleotide metabolism in bloodstream Trypanosoma brucei brucei 427 assessed as accumulation of purine/pyrimidine base forms at 1 uM incubated for 5 hrs. The data set is classed as functional, organism-based.

Molecules are shown by their SMILES. Calls of active or inactive are those of the source. The rule behind the calls is not given here.

Take `CCc1ccccc1/N=C(\NCCN1CCOCC1)NC(=O)c1cccc(C(C)=O)c1`: the selectivity ratio in [1] was 1. In addition, the IC50 in data set [2] and in data set [3] was over 83 µM in each case.
As for `N#Cc1ccccc1/N=C(\NCCN1CCOCC1)NC(=O)c1ccccc1`, the IC50 in data set [2] is over 10 µM.
As to `CCc1ccccc1/N=C(\NCCN1CCOCC1)NC(=O)c1ccc(Cl)cc1`, in data set [1], the selectivity ratio was over 52. For the same molecule, the IC50 is 1.6 µM in data set [2] and over 83 µM in [3].
`CCc1ccccc1/N=C(\NCCN1CCOCC1)NC(=O)c1cccc(C)c1`: the selectivity ratio in data set [1] is over 64. The IC50 was 1.3 µM in data set [2] and over 83 µM in data set [3].
As for `CCc1ccccc1/N=C(\NCCN1CCOCC1)NC(=O)c1ccccc1Cl`, the IC50 in data set [2] is over 10 µM.
As to `CCc1ccccc1/N=C(\NCCN1CCCC1)NC(=O)c1ccccc1`, in data set [2], the IC50 is over 10 µM.
Consider `CCc1ccccc1/N=C(\NCCN1CCOCC1)NC(=O)c1cccc(O)c1`, for which, in [1], the selectivity ratio was 1. The IC50 in data set [2] and in data set [3] was over 83 µM each time.
In turn, `CCc1ccccc1/N=C(\NCCN1CCOCC1)NC(=O)c1ccccc1C` showed an IC50 in data set [2] of over 10 µM.
On to `CCc1ccccc1/N=C(\NCCCN1CCOCC1)NC(=O)c1ccccc1`, for which the IC50 in data set [2] is over 10 µM.
For `CCc1ccccc1/N=C(\NCCN1CCOCC1)NC(=O)c1ccccc1F`, the selectivity ratio in data set [1] is 1. Moreover, the IC50 is 7 µM in [2] and over 10 µM in data set [3].
As to `CCc1ccccc1/N=C(\NCCN1CCOCC1)NC(=O)c1ccc(C(C)C)cc1`, the IC50 in data set [2] was 10 µM. Moreover, the cytotoxicity at 83 µM in [4] stood at 52%.
Regarding `CCc1ccccc1/N=C(\NCCN1CCOCC1)NC(=O)c1cccc(F)c1`, in data set [1], the selectivity ratio was over 52. The IC50 in data set [2] was 1.6 µM; in [3] it was over 83 µM.
In data set [2], `CCc1ccccc1/N=C(\NCCN1CCOCC1)NC(=O)c1ccc(F)c(F)c1` displayed an IC50 of 1.8 µM. The cytotoxicity at 83 µM in data set [4] is 86%. Besides, the outcome in data set [5], in data set [6], in [7], in data set [8], in data set [9] and in data set [10] was Active. Moreover, the result in data set [11], in data set [12], in data set [13], in data set [14], in data set [15] and in data set [16] was Active. Further, the result in [17], in data set [18], in data set [19], in data set [20], in [21] and in data set [23] was Active. For the same molecule, the outcome in data set [24] and in data set [25] was Active. The result in data set [22] was inactive.
On to `CCCc1ccccc1/N=C(\NCCN1CCOCC1)NC(=O)c1ccccc1`, for which 10 µM produced 72% inhibition in [26]. In addition, the cytotoxicity at 83 µM in data set [4] stood at 58%.
Turning to `COc1ccccc1/N=C(\NCCN1CCOCC1)NC(=O)c1ccccc1`, the IC50 in data set [2] is over 10 µM.
Molecule `CCc1ccccc1/N=C(\NCCN1CCOCC1)NC(=O)c1ccc(F)c(OC)c1` yielded an IC50 in data set [2] of 0.75 µM. Also, the cytotoxicity at 83 µM in [4] came out at 94%.
Take `CCc1ccccc1/N=C(\NCCN1CCOCC1)NC(=O)c1ccccc1OC`: in data set [2], the IC50 was over 10 µM.
Molecule `CCc1ccccc1/N=C(\NCCN1CCOCC1)NC(=O)c1ccc(F)c(C)c1` registered an IC50 in data set [2] of 2.4 µM. Also, the cytotoxicity at 83 µM in [4] turned out to be 101%.
For `CCc1ccccc1/N=C(\NCCN1CCOCC1)NC(=O)c1ccc(OC)cc1`, the selectivity ratio in data set [1] is over 8.8. The IC50 in data set [2] is 9.4 µM; in [3], over 83 µM.
Turning to `O=C(N/C(=N/c1ccccc1C(F)(F)F)NCCN1CCOCC1)c1ccccc1`, at 10 µM the inhibition in [26] was 59%. For the same molecule, the cytotoxicity at 83 µM in [4] amounted to 63%.
In the case of `O=C(N/C(=N/c1ccccc1Cl)NCCN1CCOCC1)c1ccccc1`, the selectivity ratio in [1] was over 11. The IC50 was 7.5 µM in data set [2] and over 83 µM in data set [3].
`CCc1ccccc1/N=C(\NCCN1CCOCC1)NC(=O)c1ccccc1Br` yielded an IC50 in [2] of over 10 µM.
The molecule `O=C(N/C(=N/c1ccccc1)NCCN1CCOCC1)c1ccccc1` displayed an IC50 in data set [2] of over 10 µM.
`CCc1ccccc1/N=C(\NCCN1CCOCC1)NC(=O)c1cccc(OC)c1`: in data set [1], the selectivity ratio is over 52. In addition, the IC50 in data set [2] is 1.6 µM; in data set [3] it was over 83 µM.
Turning to `O=C(N/C(=N/c1ccccc1Br)NCCN1CCOCC1)c1ccccc1`, in data set [1], the selectivity ratio is over 19. Besides, the values for the concentration for half-maximal inhibition (IC50) in data set [2] and in data set [3] were 4.2 µM and over 83 µM, respectively. Also, the outcome in data set [5], in [6], in data set [7], in data set [8], in [9] and in data set [10] was Active. Besides, the outcome in [11], in [12], in [27], in data set [28], in data set [29] and in data set [30] was Active. Besides, the result in data set [13], in [14], in [15], in [16], in data set [17] and in [18] was Active. In addition, the result in data set [19], in data set [20], in [21], in data set [23], in [24] and in data set [25] was Active. Besides, the outcome in data set [22] was inactive.
Regarding `CCc1ccccc1/N=C(\NCCN1CCN(C)CC1)NC(=O)c1ccccc1`, in [2], the IC50 is over 10 µM.
Molecule `CC(C)c1ccccc1/N=C(\NCCN1CCOCC1)NC(=O)c1ccccc1` registered an inhibition at 10 µM in [26] of 75%. For the same molecule, the cytotoxicity at 83 µM in [4] worked out at 63%.
Turning to `O=C(N/C(=N/c1ccccc1F)NCCN1CCOCC1)c1ccccc1`, in data set [2], the IC50 was over 10 µM.
The molecule `CCc1ccccc1/N=C(\NCCN(C)C)NC(=O)c1ccccc1` yielded an IC50 in [2] of over 10 µM.
On the same count and under the same terms, the figure for `CCc1ccccc1/N=C(\NCCN1CCCCC1)NC(=O)c1ccccc1` is over 10 µM.
On to `CCc1ccccc1/N=C(\NCCN1CCOCC1)NC(=O)c1ccc(Br)cc1`, for which, in [1], the selectivity ratio is over 9.5. The IC50 is 8.7 µM in data set [2] and over 83 µM in [3].
Consider `CCCc1ccc(C(=O)N/C(=N/c2ccccc2CC)NCCN2CCOCC2)cc1`, for which the selectivity ratio in data set [1] is over 9. Also, the IC50 in data set [2] is 9 µM; in data set [3], over 83 µM.

Source of the values: ChEMBL document CHEMBL5505990, “Novel aroyl guanidine anti-trypanosomal compounds that exert opposing effects on parasite energy metabolism” (Eur J Med Chem, 2024).
